Measured values from patent publication US11987588B2, “Modulators of the beta-3 adrenergic receptor useful for the treatment or prevention of heart failure and disorders related thereto” (Arena Pharmaceuticals, Inc., priority 2017, dated 2024).

biological target: Beta-3 Adrenergic Receptor (Homo sapiens (Human), UniProt P13945); test: Homogeneous Time-Resolved Fluorescence (HTRF) cAMP antagonist assay, IC50 determination; format: cell-based; conditions: CHO-K1 cells stably expressing recombinant receptor, isoproterenol at EC90
Sequence (P13945 whole entry, species assumed): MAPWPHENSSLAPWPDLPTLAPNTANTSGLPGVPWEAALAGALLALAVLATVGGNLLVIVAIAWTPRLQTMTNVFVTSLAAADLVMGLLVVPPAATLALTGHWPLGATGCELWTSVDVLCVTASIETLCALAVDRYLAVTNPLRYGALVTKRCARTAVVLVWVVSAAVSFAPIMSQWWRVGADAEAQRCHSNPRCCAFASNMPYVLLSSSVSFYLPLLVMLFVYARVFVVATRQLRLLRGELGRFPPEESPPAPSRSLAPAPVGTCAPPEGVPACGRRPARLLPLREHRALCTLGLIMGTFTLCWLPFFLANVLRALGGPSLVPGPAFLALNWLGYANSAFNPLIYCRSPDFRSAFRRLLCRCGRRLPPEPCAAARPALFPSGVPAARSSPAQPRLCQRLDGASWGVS
In short: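 Antagonist mode: isoproterenol at its predetermined EC90 added after compound to recombinant CHO-K1 cells in IBMX-containing PBS, 1 h, room temperature. Compounds tested as 5-fold, 10-point dilutions, top final typically 10 or 100 μM. HTRF signal converted to cAMP via standard curve, giving IC50.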

| SMILES | IC50 [nM] |
| --- | --- |
| CNS(=O)(=O)c1cccc(OC[C@@H](O)CNC2COC3(CCN(S(=O)(=O)c4ccc(-c5cc(C(F)(F)F)on5)s4)CC3)C2)c1 (stereo partly drawn) [Compound 208, 3-((2S)-2-hydroxy-3-(8-(5-(5-(trifluoromethyl)isoxazol-3-yl)thiophen-2-ylsulfonyl)-1-oxa-8-azaspiro[4.5]decan-3-ylamino)propoxy)-N-methylbenzenesulfonamide] | 64.6 |
| CCNS(=O)(=O)c1cccc(OC[C@@H](O)CNC2COC3(CCN(S(=O)(=O)c4ccc5nsnc5c4)CC3)C2)c1 (stereo partly drawn) [Compound 229, 3-((2S)-3-(8-(benzo[c][1,2,5]thiadiazol-5-ylsulfonyl)-1-oxa-8-azaspiro[4.5]decan-3-ylamino)-2-hydroxypropoxy)-N-ethylbenzenesulfonamide] | 272 |
| C[C@H](O)CNS(=O)(=O)c1cccc(OC[C@@H](O)CN[C@H]2COC3(CCN(S(=O)(=O)c4cnc5c(c4)N(C)CCO5)CC3)C2)c1 [Compound 434, 3-((S)-2-hydroxy-3-((R)-8-(1-methyl-2,3-dihydro-1H-pyrido[2,3-b][1,4]oxazin-7-ylsulfonyl)-1-oxa-8-azaspiro[4.5]decan-3-ylamino)propoxy)-N—((S)-2-hydroxypropyl)benzenesulfonamide] | 578 |
| O=S(=O)(NCC(F)(F)F)c1cccc(OC[C@@H](O)CNC2COC3(CCN(S(=O)(=O)c4ccc5ccccc5c4)CC3)C2)c1 (stereo partly drawn) [Compound 5, 3-((2S)-2-hydroxy-3-(8-(naphthalen-2-ylsulfonyl)-1-oxa-8-azaspiro[4.5]decan-3-ylamino)propoxy)-N-(2,2,2-trifluoroethyl)benzenesulfonamide] | 220 |
| CNS(=O)(=O)c1cccc(OC[C@@H](O)CNC2COC3(CCN(S(=O)(=O)c4ccc(NCCOC)nc4)CC3)C2)c1 (stereo partly drawn) [Compound 426, 3-((2S)-2-hydroxy-3-(8-(6-(2-methoxyethylamino)pyridin-3-ylsulfonyl)-1-oxa-8-azaspiro[4.5]decan-3-ylamino)propoxy)-N-methylbenzenesulfonamide] | 98.6 |
| CNS(=O)(=O)c1cccc(OC[C@@H](O)CN[C@@H]2COC3(CCN(S(=O)(=O)c4ccc(OC)c(-c5ccc(C6(N)CC6)cc5)c4)CC3)C2)c1 [Compound 463, 3-((S)-3-((S)-8-(4′-(1-aminocyclopropyl)-6-methoxybiphenyl-3-ylsulfonyl)-1-oxa-8-azaspiro[4.5]decan-3-ylamino)-2-hydroxypropoxy)-N-methylbenzenesulfonamide] | 24.3 |
| CNS(=O)(=O)c1cccc(OC[C@@H](O)CNC2COC3(CCN(S(=O)(=O)c4cccc(C(=O)O)c4)CC3)C2)c1 (stereo partly drawn) [Compound 56, 3-(3-((S)-2-hydroxy-3-(3-(N-methylsulfamoyl)phenoxy)propylamino)-1-oxa-8-azaspiro[4.5]decan-8-ylsulfonyl)benzoic acid] | 387 |
| CNS(=O)(=O)c1cccc(OC[C@@H](O)CNC2COC3(CCN(S(=O)(=O)c4cncc(-c5ccc(CN)cc5)c4)CC3)C2)c1 (stereo partly drawn) [Compound 341, 3-((2S)-3-(8-(5-(4-(aminomethyl)phenyl)pyridin-3-ylsulfonyl)-1-oxa-8-azaspiro[4.5]decan-3-ylamino)-2-hydroxypropoxy)-N-methylbenzenesulfonamide] | 28.5 |
| CNS(=O)(=O)c1cccc(OC[C@@H](O)CN[C@H]2COC3(CCN(S(=O)(=O)c4cccc(Cl)c4)CC3)C2)c1 [Compound 592, 3-((S)-3-((R)-8-(3-chlorophenylsulfonyl)-1-oxa-8-azaspiro[4.5]decan-3-ylamino)-2-hydroxypropoxy)-N-methylbenzenesulfonamide] | 21 |
| CNS(=O)(=O)c1cccc(OC[C@@H](O)CN[C@H]2COC3(CCN(S(=O)(=O)c4ccc(Br)c(C)c4)CC3)C2)c1 [Compound 271, 3-((S)-3-((R)-8-(4-bromo-3-methylphenylsulfonyl)-1-oxa-8-azaspiro[4.5]decan-3-ylamino)-2-hydroxypropoxy)-N-methylbenzenesulfonamide] | 7.53 |
| CNS(=O)(=O)c1cccc(OC[C@@H](O)CN[C@@H]2COC3(CCN(S(=O)(=O)c4ccc5ccccc5c4)CC3)C2)c1 [Compound 29, 3—((S)-2-hydroxy-3-((S)-8-(naphthalen-2-ylsulfonyl)-1-oxa-8-azaspiro[4.5]decan-3-ylamino)propoxy)-N-methylbenzenesulfonamide] | 4.53 |
| C[C@@H](CO)NS(=O)(=O)c1cccc(OC[C@@H](O)CN[C@H]2COC3(CCN(S(=O)(=O)c4cnc5c(c4)N(C)CCO5)CC3)C2)c1 [Compound 432, 3-((S)-2-hydroxy-3-((R)-8-(1-methyl-2,3-dihydro-1H-pyrido[2,3-b][1,4]oxazin-7-ylsulfonyl)-1-oxa-8-azaspiro[4.5]decan-3-ylamino)propoxy)-N—((S)-1-hydroxypropan-2-yl)benzenesulfonamide] | 196 |
| CNS(=O)(=O)c1cccc(OC[C@@H](O)CNC2COC3(CCN(S(=O)(=O)c4cc(-c5ccc(CN)cc5)ccc4OC(F)(F)F)CC3)C2)c1 (stereo partly drawn) [Compound 411, 3-((2S)-3-(8-(4′-(aminomethyl)-4-(trifluoromethoxy)biphenyl-3-ylsulfonyl)-1-oxa-8-azaspiro[4.5]decan-3-ylamino)-2-hydroxypropoxy)-N-methylbenzenesulfonamide] | 9.84 |
| CNS(=O)(=O)c1cccc(OC[C@@H](O)CNC2COC3(CCN(S(=O)(=O)c4cccc(-c5c(C)noc5C)c4)CC3)C2)c1 (stereo partly drawn) [Compound 59, 3-((2S)-3-(8-(3-(3,5-dimethylisoxazol-4-yl)phenylsulfonyl)-1-oxa-8-azaspiro[4.5]decan-3-ylamino)-2-hydroxypropoxy)-N-methylbenzenesulfonamide] | 14.5 |
| CNS(=O)(=O)c1cccc(OC[C@@H](O)CNC2COC3(CCN(S(=O)(=O)c4ccc(S(C)(=O)=O)cc4)CC3)C2)c1 (stereo partly drawn) [Compound 37, 3-((2S)-2-hydroxy-3-(8-(4-(methylsulfonyl)phenylsulfonyl)-1-oxa-8-azaspiro[4.5]decan-3-ylamino)propoxy)-N-methylbenzenesulfonamide] | 49.3 |
| CNS(=O)(=O)c1cccc(OC[C@@H](O)CNC2COC3(CCN(S(=O)(=O)c4cccc(-c5cccc(CN(C)C)c5)c4)CC3)C2)c1 (stereo partly drawn) [Compound 105, 3-((2S)-3-(8-(3′-((dimethylamino)methyl)biphenyl-3-ylsulfonyl)-1-oxa-8-azaspiro[4.5]decan-3-ylamino)-2-hydroxypropoxy)-N-methylbenzenesulfonamide] | 31.2 |
| CNS(=O)(=O)c1cccc(OC[C@@H](O)CN[C@H]2COC3(CCN(S(=O)(=O)c4cnc5c(c4)N(C)C[C@@H](C)O5)CC3)C2)c1 [Compound 468, 3-((S)-3-((R)-8-((R)-1,3-dimethyl-2,3-dihydro-1H-pyrido[2,3-b][1,4]oxazin-7-ylsulfonyl)-1-oxa-8-azaspiro[4.5]decan-3-ylamino)-2-hydroxypropoxy)-N-methylbenzenesulfonamide] | 31.1 |
| CNS(=O)(=O)c1cccc(OC[C@@H](O)CN[C@@H]2COC3(CCN(S(=O)(=O)c4cccc(-c5ccc(C6(N)CC6)cc5)c4)CC3)C2)c1 [Compound 446, 3-((S)-3-((S)-8-(4′-(1-aminocyclopropyl)biphenyl-3-ylsulfonyl)-1-oxa-8-azaspiro[4.5]decan-3-ylamino)-2-hydroxypropoxy)-N-methylbenzenesulfonamide] | 11.9 |
